Measured values reported in ChEMBL document CHEMBL1155158, “Early bactericidal activity of high-dose rifampin in patients with pulmonary tuberculosis evidenced by positive sputum smears” (Antimicrob Agents Chemother, 2007).

Key:
[1] = tested on: Mycobacterium tuberculosis; assay: Antimycobacterial activity against Mycobacterium tuberculosis infected patient assessed as sputum bacterial count at 20 mg/kg, po administered daily for 5 days; type: functional
[2] = Tmax in Mycobacterium tuberculosis infected patient at 3 mg/kg; type: ADME, organism-based; parameters: dose 3 mg/kg; conditions: human, in vivo
[3] = Tmax in Mycobacterium tuberculosis infected patient at 6 mg/kg; type: ADME, organism-based; parameters: dose 6 mg/kg; conditions: human, in vivo
clinical [4] = conditions: human, in vivo, 6 mg/kg
Description: Cmax in Mycobacterium tuberculosis infected patient at 6 mg/kg

[5] = Tmax in Mycobacterium tuberculosis infected patient at 12 mg/kg; type: ADME, organism-based; parameters: dose 12 mg/kg; conditions: human, in vivo
Homo sapiens [6] = assay: AUC (0 to infinity) in Mycobacterium tuberculosis infected patient at 3 mg/kg; type: ADME, organism-based, Plasma; parameters: time infinity, dose 3 mg/kg; conditions: in vivo
[7] = tested on: Mycobacterium tuberculosis; assay: Antimycobacterial activity against Mycobacterium tuberculosis infected patient assessed as sputum bacterial count at 600 mg, po after 2 days; type: functional
[8] = tested on: Mycobacterium tuberculosis; assay: Antimycobacterial activity against Mycobacterium tuberculosis infected patient assessed as sputum bacterial count at 20 mg/kg, po administered daily for 2 days; type: functional
clinical [9] = conditions: human, in vivo, 3 mg/kg
Description: Cmax in Mycobacterium tuberculosis infected patient at 3 mg/kg

clinical [10] = conditions: human, in vivo, po, 20 mg/kg
Description: Cmax in Mycobacterium tuberculosis infected patient at 20 mg/kg, po administered daily for 5 days

clinical [11] = conditions: human, in vivo, 12 mg/kg
Description: Cmax in Mycobacterium tuberculosis infected patient at 12 mg/kg

[12] = Tmax in Mycobacterium tuberculosis infected patient at 20 mg/kg, po administered daily for 5 days; type: ADME, organism-based; parameters: dose 20 mg/kg, route oral; conditions: human, in vivo
Homo sapiens [13] = assay: AUC (0 to infinity) in Mycobacterium tuberculosis infected patient at 6 mg/kg; type: ADME, organism-based, Plasma; parameters: time infinity, dose 6 mg/kg; conditions: in vivo

## CO[C@H]1/C=C/O[C@@]2(C)Oc3c(C)c(O)c4c(O)c(c(/C=N/N5CCN(C)CC5)c(O)c4c3C2=O)NC(=O)/C(C)=C\C=C\[C@H](C)[C@H](O)[C@@H](C)[C@@H](O)[C@@H](C)[C@H](OC(C)=O)[C@@H]1C [RIFAMPIN]
[1]
  log10CFU/ml: 0.3
[2]
  Tmax: 3.12 h
[3]
  Tmax: 3.67 h
Clinical [4]
  Cmax: 3190 ng/mL
[5]
  Tmax: 2.5 h
Homo sapiens [6]
  AUC: 13.1 µg/mL
[7]
  log10CFU/ml: 0.221
[8]
  log10CFU/ml: 0.44
Clinical [9]
  Cmax: 2530 ng/mL
Clinical [10]
  Cmax at 120 h: 14000 ng/mL
Clinical [11]
  Cmax: 13000 ng/mL
[12]
  Tmax: 3.27 h
Homo sapiens [13]
  AUC: 24.5 µg/mL
